Measurements taken from patent US20250189546A1, “METHODS FOR ANALYZING DRUG MOLECULES IN MAMMALIAN TISSUES” (The Scripps Research Institute, priority 2022, published 2025).
“Also recorded” adds a separate entry of the source. Like-named read-outs stand apart in the source and are kept apart here.

Tests used:
[1] = humans, cited from earlier work
FAAH [2] = target: T1, FAAH (Mus musculus, UniProt O08914); test: Gel-based CC-ABPP of whole brain lysates; type: in vivo; settings: 20 mg/kg
T1 construct: from tissue; host or cells: mouse brain (C57BL6J wild type)
T1 sequence (O08914 1-579): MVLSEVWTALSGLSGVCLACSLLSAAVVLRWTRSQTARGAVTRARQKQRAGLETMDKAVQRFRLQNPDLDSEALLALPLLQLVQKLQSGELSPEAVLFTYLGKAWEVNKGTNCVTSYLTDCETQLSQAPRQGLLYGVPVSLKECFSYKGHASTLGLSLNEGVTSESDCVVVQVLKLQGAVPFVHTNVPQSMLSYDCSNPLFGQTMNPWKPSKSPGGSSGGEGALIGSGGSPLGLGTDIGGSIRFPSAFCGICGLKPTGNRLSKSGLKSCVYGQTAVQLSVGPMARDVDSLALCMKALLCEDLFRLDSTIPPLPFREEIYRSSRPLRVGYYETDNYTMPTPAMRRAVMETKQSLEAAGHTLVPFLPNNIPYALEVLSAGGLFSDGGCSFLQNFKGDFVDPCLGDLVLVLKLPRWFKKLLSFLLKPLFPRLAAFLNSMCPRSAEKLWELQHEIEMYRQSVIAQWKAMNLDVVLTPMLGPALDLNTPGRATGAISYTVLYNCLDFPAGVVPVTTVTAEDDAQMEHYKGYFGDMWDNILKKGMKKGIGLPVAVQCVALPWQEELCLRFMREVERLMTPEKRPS
Experimental: (§1) For in gel ABPP analysis, after anesthetizing, mice were decapitated and target tissues were harvested and flash frozen in liquid N2 without perfusion or fixation. Each mouse hemisphere and liver were washed with ice cold PBS on ice (2×1 mL) to remove excessive blood. Tissues were homogenized in 1 mL PBS and sonicated for 10 min in ice cold water. Tissues were centrifuged (1000 g, 10 min, 4° C.) and supernatant was then centrifuged at high speed (100,000 g, 45 min, 4° C.). Supernatant was discarded and remaining pellets were gently washed with ice cold PBS (2×0.5 mL). Pellets were resuspended by gentle pipetting and protein concentrations were quantified by the Bio-Rad DC Protein Assay Kit. Proteomes were then diluted to […] for immediate use or aliquoted and stored at −80° C.
(§2) In gel click chemistry ABPP assay: Click chemistry labeling of alkyne inhibitors was performed as previously reported (Niphakis et al., ACS Chem Neurosci 3, 418-426, 2012). Click reaction buffer was prepared by mixing CuSO4 (50 mM in H2O, 1.0 μL/reaction), TBTA (1.7 mM in 1:4 DMSO/t-BuOH, 3.0 μL/reaction), freshly prepared TCEP (50 mM in H2O, 1.0 μL/reaction) and 5-TAMRA azide (1.25 mM in DMSO, 1.0 μL/reaction). For every 50 μL tissue proteome ([…]), 6 μL click buffer was added. Reaction mixture was gently mixed and kept in a dark drawer for 1 hour at RT. […]

MAGL = target: T2, MAGL (Mus musculus, UniProt O35678); test: Gel-based CC-ABPP of whole brain lysates; type: in vivo; settings: 1 mg/kg
T2 construct: from tissue; host or cells: mouse brain hemisphere, 100,000 g membrane pellet
T2 sequence (O35678 1-303): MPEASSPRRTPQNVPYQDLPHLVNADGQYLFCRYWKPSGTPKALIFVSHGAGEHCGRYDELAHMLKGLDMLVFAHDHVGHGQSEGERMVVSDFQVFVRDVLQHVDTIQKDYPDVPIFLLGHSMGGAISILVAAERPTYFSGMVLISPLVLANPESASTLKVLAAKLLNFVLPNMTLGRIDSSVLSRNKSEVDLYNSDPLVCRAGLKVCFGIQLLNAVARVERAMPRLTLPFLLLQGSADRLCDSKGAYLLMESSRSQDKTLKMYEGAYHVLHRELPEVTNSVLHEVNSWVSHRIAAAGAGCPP
Experimental: as §1, §2

[3] = system: monoacylglycerol lipase (MAGL); test: CATCH subcellular compartment imaging in hippocampus with synapsin and MAP2 immunostaining; type: in vivo, mouse
From the text: Because MAGL is restricted in localization to presynaptic axonal terminals, whereas FAAH is expressed in neuronal soma, the inventors sought to determine whether CATCH could detect on-and off-target MJN110-yne binding across subcellular compartments. The inventors focused on the well-characterized CA3 to CA1 projection in the hippocampus as it allowed us to observe both axon terminals and soma in the same field of view.
(§3) CATCH labeling: For 100-micron sections labeling, the full CATCH reaction buffer contains: 5 μM AF647-picolyl azide, 150 μM CuSO4, 300 μM BTTP, 2.5 mM sodium ascorbate, and 10% DMSO in PBS. Tissue sections were incubated in click incubation buffer (without sodium ascorbate) overnight at RT. Tissues were then transferred to newly prepared incubation buffer and 100 mM freshly prepared sodium ascorbate was subsequently added to initiate the reaction. After 1 hour at RT in the dark with minor agitation, the reaction was quenched by addition of 4 mM EDTA in PBS (pH=8.0) and samples were washed 3×10 min with PBST. After removing click reaction cocktail, samples were stained by DAPI (1:3000 dilution in PBS from 10 μM stock) for 15 min at RT and would be ready for RI matching and imaging. They could also undergo further staining for cell type registration. For 500-micron sections, 300 μM CuSO4 and 600 μM BTTP were used for incubation and reaction. To achieve full labeling, tissues were incubated at 37° C. for 2 days, and underwent 4 rounds of 1 h click reaction at RT.
Immunostaining: Samples were incubated with primary antibodies in PBST overnight at 4° C. unless otherwise noted. Samples were then washed with PBST, 3×30 min, RT and transferred to secondary antibodies diluted in PBST. Samples were incubated with secondary antibodies overnight, RT and washed with PBST 3×30 min. For antibody elution, imaged slides were dismounted, and tissues were washed by 8% PBS-SDS (pH=7.0) at 60° C. for 8 hours. Samples were then washed by PBST 3×10 min at RT to remove residual SDS and could undergo the next round of staining.
Subcellular compartment intensity analysis: For MJN110-yne characterization, images were acquired at 5 μm from the tissue surface where the highest immunostaining signal can be observed. Different cellular compartments were identified by applying a threshold in immunostaining signal and mean drug labeling intensity was measured in the selected threshold region. Three random squares were drawn in nucleus in different cells and their average intensity was used as background. The recorded intensity value in soma or axonal terminal was then subtracted by the intensity in the nucleus for background adjustment. Data was then normalized to the average intensity of the control group as indicated in each figure legends.

FAAH [4] = target: T1, FAAH; test: Competitive CATCH: parental PF7845 followed by PF7845-yne probe; type: in vivo
From the text: After establishing CATCH's specificity, scalability, compatibility, and resolution, finally, the inventors tested if CATCH can be used to quantitatively resolve dose-dependent target engagement after in vivo drug administration. […] In this competitive CATCH approach, animals are first treated with a dose range of the parental drugs, followed by a single high dose of the alkyne probes. The dose-dependent target engagement by the parental drug can be recorded based on the competitive blockade of signal in an anatomically specific manner (FIG. 8, A).
The inventors treated mice with 0.01-1 mg/kg of parental PF7845 followed by 1 mg/kg PF7845-yne probe to readout the dose-dependent brain targets of PF7845 by competitive CATCH. […] Conversely, the inventors adopted a direct approach to visualize dose-dependent alkyne drug PK properties (FIG. 8, C).
Sample collection: Inhibitors were administered to mice in a vehicle of 10% DMSO, 2% Tween-80 in saline for intraperitoneal (i.p.) injections. After drug injection at designated dose and time, mice were heavily anesthetized with isoflurane and then transcardially perfused with ice cold PBS followed by ice cold 4% PFA in PBS with sucrose. Mouse brains or other peripheral tissues were then dissected out and post fixed in 4% PFA overnight at 4° C. Tissues were washed with PBS, embedded in 2% agarose and sectioned as 100-micron or 500-micron tissue sections by vibratome (Leica VT1000S). Tissue sections were stored in PBS with 0.02% sodium azide at 4° C. for further processing.
as §3

| FAAH target binding by competitive CATCH (FAAH [4]; 0.01 mg/kg PF7845, then 1 mg/kg PF7845-yne) | FAAH inhibition by competitive CATCH (FAAH [4]; 0.05 mg/kg PF7845, then 1 mg/kg PF7845-yne) | Effect of pre-treatment on PF7845-yne-generated CATCH signals across the brain (FAAH [4]; pharmacological blocking experiment) | SMILES | Clinical safety / toxicity [1] | Clinical safety / toxicity ([1]; listed as BIA 10-2474) | Off-target engagement in gel-based CC-ABPP (FAAH [2]) | Target engagement in gel-based CC-ABPP (MAGL) | Subcellular localisation of CATCH signal, low dose ([3]; 1 mg/kg, hippocampus CA1) | Overall fluorescence intensity in hippocampus ([3]; 20 mg/kg vs 1 mg/kg) | Subcellular localisation of CATCH signal, high dose ([3]; 20 mg/kg, hippocampus) | Specificity of CATCH signals ([3]; pretreatment with parent MJN110 and MAGL−/− mice) | FAAH inhibition by competitive CATCH, cortex vs hippocampus (FAAH [4]; 0.02 mg/kg PF7845, then PF7845-yne 1 mg/kg, 1 h, i.p.) | Duration of FAAH blockage to competitive probe binding (FAAH [4]; 24 hours after PF7845 administration) | Effect of pre-treatment on MJN110-yne binding in soma and axon terminals ([3]; PF7845 pre-treatment, then MJN110-yne, hippocampus) |
| --- | --- | --- | --- | --- | --- | --- | --- | --- | --- | --- | --- | --- | --- | --- |
|  |  |  | CN(C(=O)n1cnc(-c2ccc[n+]([O-])c2)c1)C1CCCCC1 [BIA-10-2474] | Unanticipated toxicity | associated with clinical neurological toxicities |  |  |  |  |  |  |  |  |  |
|  |  |  | C#Cc1ccc(C(c2ccc(Cl)cc2)N2CCN(C(=O)ON3C(=O)CCC3=O)CC2)cc1 (stereo not drawn) [MJN110-yne] |  |  | substantial off-target engagement of FAAH | selectively engaged MAGL | binding in presynaptic terminals; also recorded: restricted to synapsin positive axon terminals | overall higher fluorescence intensity | spread to the neuronal soma | confirmed the specificity |  |  |  |
| no target binding was detected | full FAAH inhibition was achieved | completely abolished | O=C(Nc1cccnn1)N1CCC(=Cc2cccc(Oc3ccc(C(F)(F)F)cn3)c2)CC1 [PF7845] | considered a safe FAAH inhibitor |  |  |  |  |  |  |  | Cortical PF7845-yne is fully blocked; also recorded: fully inhibited in the cortex but not in the hippocampus | sustained FAAH blockage to competitive probe binding | significantly suppressed MJN110-yne binding in the soma, but not axon terminals |
